Reference: PMC6271041, “Synthesis and Biological Evaluation of Novel 2-Arylalkylthio-5-iodine-6-substituted-benzyl-pyrimidine-4(3H)-ones as Potent HIV-1 Non-Nucleoside Reverse Transcriptase Inhibitors” (Molecules, 2014)

Assays:
HIV-1 RT = target: T1, HIV-1 RT (Human immunodeficiency virus type 1 group M subtype B, UniProt P04585); test: Inhibitory activity against HIV-1 RT (biotin-dUTP incorporation, colorimetric); type: biochemical; details: for IC50: mean of three separate experiments, variation less than 15%
T1 construct: The biotin-dUTP was incorporated by reverse transcriptase (Sigma, St. Louis, MO, USA); purchased Sigma
Procedure: Oligo(dT) (TaKaRa Co., Otsu, Japan) was immobilized via its 5'-terminal phosphate to Covalink-NH microtiter plates (NUNC Co., Roskilde, Denmark). The biotin-dUTP was incorporated by reverse transcriptase (Sigma, St. Louis, MO, USA). Briefly, a serial concentration of inhibitor was added to the mixture, which contained 50 mmol/L Tris-HCl (pH 8.3), 3 mmol/L MgCl2, 75 mmol/L KCl, 5 mmol/L DTT, 0.13 mg/mL BSA, 10 μg/mL poly (A), 0.75 μM biotin-11-Dutp, 1.5 μM dTTP and HIV-1 RT. After incubation at 37 °C for 1h, washing buffer, which contained 50 mmol/L Tris-HCl (pH 7.5), 0.15 mol/L NaCl, 0.05 mmol/L MgCl2 and 0.02% Tween20, was used to wash the plate. Then each well of the plate was added […] 1% BSA and incubated at room temperature for another 30 min. The plate was washed with the same buffer for 3 times. Before further incubation at 37 °C for 1 h, 50 μL of alkaline phosphatase streptavidin (SA-ALP) solution (100 ng/mL) was added to each well and washed again as above. Finally, 50 μL of p-nitrophenyl phosphate, disodium (PNPP, 1 mg/mL, pH 9.5) was added and incubated at 37 °C for 30 min. 0.5 mol/L NaOH was added to stop the reaction and a colorimetric streptavidin-alkaline phosphatase reporter system was used to detect and quantify the result.

| SMILES | IC50 (HIV-1 RT) | melting point | fold more active compared to nevirapine (HIV-1 RT IC50) (HIV-1 RT) |
| --- | --- | --- | --- |
| Cc1cc(C)cc(Cc2cc(=O)[nH]c(SCc3ccc(C#N)cc3)n2)c1 [7e, 2-(4-Cyanobenzylthio)-6-(3,5-dimethylbenzyl)uracil] | 29.6 µM | 193 to 196 °C | – |
| N#Cc1ccc(CSc2nc(Cc3ccccc3)c(I)c(=O)[nH]2)cc1 [8d, 2-(4-Cyanobenzylthio)-5-iodine-6-benzyluracil] | 10.6 µM | 223 to 226 °C | – |
| N#Cc1ccc(CSc2nc(Cc3ccccc3)cc(=O)[nH]2)cc1 [7d, 2-(4-Cyanobenzylthio)-6-benzyluracil] | > 100 µM | 190 to 193 °C | – |
| CC(=O)c1ccc(CSc2nc(Cc3cc(F)cc(F)c3)cc(=O)[nH]2)cc1 [7i, 2-(4-Acetylbenzylthio)-6-(3,5-difluorobenzyl)uracil] | 33.9 µM | 251 to 254 °C | – |
| CC(=O)c1ccc(CSc2nc(Cc3ccccc3)cc(=O)[nH]2)cc1 [7g, 2-(4-Acetylbenzylthio)-6-benzyluracil] | 55 µM | 204 to 205 °C | – |
| CC(=O)c1ccc(CSc2nc(Cc3cc(F)cc(F)c3)c(I)c(=O)[nH]2)cc1 [8i, 2-(4-Acetylbenzylthio)-5-iodine-6-(3,5-difluorobenzyl)uracil] | 4.03 µM | 205 to 206 °C | – |
| COC(=O)c1ccc(CSc2nc(Cc3cc(C)cc(C)c3)c(I)c(=O)[nH]2)cc1 [8k, 2-(4-Methoxycarbonylbenzylthio)-5-iodine-6-(3,5-dimethylbenzyl)uracil] | 1.11 µM | 208 to 211 °C | – |
| O=c1[nH]c(SCOCc2ccccc2)nc(Cc2ccccc2)c1I [8v, 2-(Benzyloxymethylthio)-5-iodine-6-benzyluracil] | 10.2 µM | 133 to 135 °C | – |
| COC(=O)c1ccc(CSc2nc(Cc3cc(F)cc(F)c3)c(I)c(=O)[nH]2)cc1 [8l, 2-(4-Methoxycarbonylbenzylthio)-5-iodine-6-(3,5-difluorobenzyl)uracil] | 0.71 µM | 210 to 213 °C | about 10 fold |
| COC(=O)c1ccc(CSc2nc(Cc3cc(F)cc(F)c3)cc(=O)[nH]2)cc1 [7l, 2-(4-Methoxycarbonylbenzylthio)-6-(3,5-difluorobenzyl)uracil] | > 100 µM | 279 to 280 °C | – |
| O=c1[nH]c(SCCCOc2ccccc2)nc(Cc2ccccc2)c1I [8s, 2-(Phenoxypropylthio)-5-iodine-6-benzyluracil] | 5.88 µM | 135 to 137 °C | – |
| O=c1[nH]c(SCCCOc2ccccc2)nc(Cc2cc(F)cc(F)c2)c1I [8u, 2-(Phenoxypropylthio)-5-iodine-6-(3,5-difluorobenzyl)uracil] | 18 µM | 156 to 158 °C | – |
| COC(=O)c1ccc(CSc2nc(Cc3cc(C)cc(C)c3)cc(=O)[nH]2)cc1 [7k, 2-(4-Methoxycarbonylbenzylthio)-6-(3,5-dimethylbenzyl)uracil] | 7.5 µM | 221 to 224 °C | – |
| Cc1cc(C)cc(Cc2cc(=O)[nH]c(SCc3ccc([N+](=O)[O-])cc3)n2)c1 [7b, 2-(4-Nitrobenzylthio)-6-(3,5-dimethylbenzyl)uracil] | 3.32 µM | 218 to 220 °C | – |
| Cc1cc(C)cc(Cc2cc(=O)[nH]c(SCOCc3ccccc3)n2)c1 [7w, 2-(Benzyloxymethylthio)-6-(3,5-dimethylbenzyl)uracil] | 1.82 µM | 134 to 136 °C | – |
| Cc1cc(C)cc(Cc2nc(SCOCc3ccccc3)[nH]c(=O)c2I)c1 [8w, 2-(Benzyloxymethylthio)-5-iodine-6-(3,5-dimethylbenzyl)uracil] | 8.75 µM | 200 to 202 °C | – |
| CC(=O)c1ccc(CSc2nc(Cc3cc(C)cc(C)c3)cc(=O)[nH]2)cc1 [7h, 2-(4-Acetylbenzylthio)-6-(3,5-dimethylbenzyl)uracil] | 17 µM | 195 to 197 °C | – |
| O=c1cc(Cc2ccccc2)nc(SCCc2ccc([N+](=O)[O-])cc2)[nH]1 [7m, 2-(4-Nitrophenethylthio)-6-benzyluracil] | 67.2 µM | 200 to 204 °C | – |
| CC(=O)c1ccc(CSc2nc(Cc3ccccc3)c(I)c(=O)[nH]2)cc1 [8g, 2-(4-Acetylbenzylthio)-5-iodine-6-benzyluracil] | 13.8 µM | 219 to 220 °C | – |
| O=c1cc(Cc2cc(F)cc(F)c2)nc(SCCOc2ccc([N+](=O)[O-])cc2)[nH]1 [7r, 2-(2-(4-Nitrophenoxy)ethylthio)-6-(3,5-difluorobenzyl)uracil] | 1.31 µM | 210 to 212 °C | – |
| O=c1[nH]c(SCc2ccc([N+](=O)[O-])cc2)nc(Cc2cc(F)cc(F)c2)c1I [8c, 2-(4-Nitrobenzylthio)-5-iodine-6-(3,5-difluorobenzyl)uracil] | 5.5 µM | 203 to 206 °C | – |

| SMILES | IC50 (HIV-1 RT) | melting point | fold more active compared to nevirapine (HIV-1 RT IC50) (HIV-1 RT) |
| --- | --- | --- | --- |
| CC(C)c1c(Cc2ccccc2)n(COCc2ccccc2)c(=O)[nH]c1=O [TNK-651, reference compound] | 0.14 µM | – | – |
| Cc1cc(C)cc(Cc2nc(SCCCOc3ccccc3)[nH]c(=O)c2I)c1 [8t, 2-(Phenoxypropylthio)-5-iodine-6-(3,5-dimethylbenzyl)uracil] | 12.9 µM | 165 to 167 °C | – |
| O=c1cc(Cc2cc(F)cc(F)c2)nc(SCCc2ccc([N+](=O)[O-])cc2)[nH]1 [7o, 2-(4-Nitrophenethylthio)-6-(3,5-difluorobenzyl)uracil] | 18.1 µM | 220 to 222 °C | – |
| O=c1cc(Cc2ccccc2)nc(SCCCOc2ccccc2)[nH]1 [7s, 2-(Phenoxypropylthio)-6-benzyluracil] | 16.7 µM | 89 to 91 °C | – |
| O=c1[nH]c(SCCOc2ccc([N+](=O)[O-])cc2)nc(Cc2ccccc2)c1I [8p] | 6.28 µM | 204 to 205 °C | – |
| COC(=O)c1ccc(CSc2nc(Cc3ccccc3)c(I)c(=O)[nH]2)cc1 [8j, 2-(4-Methoxycarbonylbenzylthio)-5-iodine-6-benzyluracil] | 3.64 µM | 214 to 216 °C | – |
| N#Cc1ccc(CSc2nc(Cc3cc(F)cc(F)c3)cc(=O)[nH]2)cc1 [7f, 2-(4-Cyanobenzylthio)-6-(3,5-difluorobenzyl)uracil] | 15.8 µM | 205 to 208 °C | – |
| N#Cc1ccc(CSc2nc(Cc3cc(F)cc(F)c3)c(I)c(=O)[nH]2)cc1 [8f, 2-(4-Cyanobenzylthio)-5-iodine-6-(3,5-difluorobenzyl)uracil] | 4.49 µM | 216 to 219 °C | – |
| COC(=O)c1ccc(CSc2nc(Cc3ccccc3)cc(=O)[nH]2)cc1 [7j, 2-(4-Methoxycarbonylbenzylthio)-6-benzyluracil] | > 100 µM | 214 to 217 °C | – |
| O=c1[nH]c(SCCc2ccc([N+](=O)[O-])cc2)nc(Cc2ccccc2)c1I [8m, 2-(4-Nitrophenethylthio)-5-iodine-6-benzyluracil] | 8.64 µM | 209 to 212 °C | – |
| Cc1cc(C)cc(Cc2cc(=O)[nH]c(SCCCOc3ccccc3)n2)c1 [7t, 2-(Phenoxypropylthio)-6-(3,5-dimethylbenzyl)uracil] | 2.64 µM | 100 to 102 °C | – |
| Cc1cc(C)cc(Cc2nc(SCc3ccc([N+](=O)[O-])cc3)[nH]c(=O)c2I)c1 [8b, 2-(4-Nitrobenzylthio)-5-iodine-6-(3,5-dimethylbenzyl)uracil] | 1.66 µM | 224 to 228 °C | – |
| O=c1cc(Cc2cc(F)cc(F)c2)nc(SCCCOc2ccccc2)[nH]1 [7u, 2-(Phenoxypropylthio)-6-(3,5-difluorobenzyl)uracil] | 14.4 µM | 100 to 101 °C | – |
| O=c1[nH]c(SCc2ccc([N+](=O)[O-])cc2)nc(Cc2ccccc2)c1I [8a, 2-(4-Nitrobenzylthio)-5-iodine-6-benzyluracil] | 9.2 µM | 207 to 210 °C | – |
| O=c1cc(Cc2ccccc2)nc(SCOCc2ccccc2)[nH]1 [7v, 2-(Benzyloxymethylthio)-6-benzyluracil] | 12.9 µM | 118 to 120 °C | – |
| O=c1cc(Cc2ccccc2)nc(SCCOc2ccc([N+](=O)[O-])cc2)[nH]1 [7p, 2-(2-(4-Nitrophenoxy)ethylthio)-6-benzyluracil] | 4.58 µM | 212 to 213 °C | – |
| O=c1cc(Cc2cc(F)cc(F)c2)nc(SCc2ccc([N+](=O)[O-])cc2)[nH]1 [7c, 2-(4-Nitrobenzylthio)-6-(3,5-difluorobenzyl)uracil] | > 100 µM | – | – |
| O=c1cc(Cc2ccccc2)nc(SCc2ccc([N+](=O)[O-])cc2)[nH]1 [7a, 2-(4-Nitrobenzylthio)-6-benzyluracil] | > 100 µM | 192 to 194 °C | – |
| Cc1cc(C)cc(Cc2nc(SCc3ccc(C#N)cc3)[nH]c(=O)c2I)c1 [8e, 2-(4-Cyanobenzylthio)-5-iodine-6-(3,5-dimethylbenzyl)uracil] | 4.03 µM | 224 to 227 °C | – |
| O=c1[nH]c(SCCc2ccc([N+](=O)[O-])cc2)nc(Cc2cc(F)cc(F)c2)c1I [8o, 2-(4-Nitrophenethylthio)-5-iodine-6-(3,5-difluorobenzyl)uracil] | 6.88 µM | 220 to 221 °C | – |
